Assay results published in patent US20230002372A1, “AZAINDOLE CARBOXAMIDE COMPOUNDS FOR THE TREATMENT OF MYCOBACTERIAL INFECTIONS” (THE GLOBAL ALLIANCE FOR TB DRUG DEVELOPMENT, INC., priority 2019, published 2023).
≈ marks a conversion by molar mass, not a printed value.

test system: M tb H37Rv; test: MIC determination against M tb H37Rv (green fluorescent protein reporter assay; MIC-MABA); format: cell-based, Mycobacterium tuberculosis; conditions: Mycobacterium tuberculosis, H37RV, 240 h, read-out: M. TB H37Rv: MIC-MABA: MIC, M. tb H37Rv; 7H9 broth; 10 days exposure; MIC = lowest concentration inhibiting fluorescence by 90%

| SMILES | MIC [µg/mL] |
| --- | --- |
| C[C@@H]1[C@@H](NC(=O)c2cc3c(C(F)(F)F)cncc3[nH]2)C[C@H]2C[C@@H]1C2(C)C [MPL-100, 4-(trifluoromethyl)-N-[(1S,2S,3S,5R)-2,6,6-trimethylnorpinan-3-yl]-1H-pyrrolo[2,3-c]pyridine-2-carboxamide] | 0.24 (≈ 0.657 µM) |
| CC1(C)C2CCC1(C)C(NC(=O)c1cc3c(F)ccnc3[nH]1)C2 (stereo not shown) [MPL-106, 4-fluoro-N-(1,7,7-trimethylnorbornan-2-yl)-1H-pyrrolo[2,3-b]pyridine-2-carboxamide] | 0.16 (≈ 0.507 µM) |
| CC1(C)C2CCC1(C)C(NC(=O)c1cc3c(C(F)(F)F)ccnc3[nH]1)C2 (stereo not shown) [MPL-108, 4-(trifluoromethyl)-N-(1,7,7-trimethylnorbornan-2-yl)-1H-pyrrolo[2,3-b]pyridine-2-carboxamide] | 0.02 (≈ 0.0547 µM) |
| C[Si]1(C)CCC(NC(=O)c2cc3c(F)ccnc3[nH]2)CC1 [MPL-109, N-(1,1-dimethylsilinan-4-yl)-4-fluoro-1H-pyrrolo[2,3-b]pyridine-2-carboxamide] | 0.022 (≈ 0.072 µM) |
| C[Si]1(C)CCC(NC(=O)c2cc3c(C#N)ccnc3[nH]2)CC1 [MPL-110, 4-cyano-N-(1,1-dimethylsilinan-4-yl)-1H-pyrrolo[2,3-b]pyridine-2-carboxamide] | 0.022 (≈ 0.0704 µM) |
| C[Si]1(C)CCC(NC(=O)c2cc3c(C(F)(F)F)ccnc3[nH]2)CC1 [MPL-111, N-(1,1-dimethylsilinan-4-yl)-4-(trifluoromethyl)-1H-pyrrolo[2,3-b]pyridine-2-carboxamide] | 0.0095 (≈ 0.0267 µM) |
| Cc1cc2cc(C(=O)N[C@H]3C[C@H]4C[C@@H]([C@@H]3C)C4(C)C)[nH]c2c(F)n1 [MPL-122, 7-fluoro-5-methyl-N-[(1S,2S,3S,5R)-2,6,6-trimethylnorpinan-3-yl]-1H-pyrrolo[2,3-c]pyridine-2-carboxamide] | 3.1 (≈ 9.41 µM) |
| Cc1cc2cc(C(=O)NC3CCC(C)(C)CC3)[nH]c2cn1 [MPL-125, N-(4,4-dimethylcyclohexyl)-5-methyl-1H-pyrrolo[2,3-c]pyridine-2-carboxamide] | 3.1 (≈ 10.9 µM) |
| C[C@@H]1[C@@H](NC(=O)c2cc3cc(Cl)ncc3[nH]2)C[C@H]2C[C@@H]1C2(C)C [MPL-126, 5-chloro-N-[(1S,2S,3S,5R)-2,6,6-trimethylnorpinan-3-yl]-1H-pyrrolo[2,3-c]pyridine-2-carboxamide] | 3.1 (≈ 9.34 µM) |
| C[C@@H]1[C@@H](NC(=O)c2cc3cc(F)ncc3[nH]2)C[C@H]2C[C@@H]1C2(C)C [MPL-128, 5-fluoro-N-[(1S,2S,3S,5R)-2,6,6-trimethylnorpinan-3-yl]-1H-pyrrolo[2,3-c]pyridine-2-carboxamide] | 2.3 (≈ 7.29 µM) |
| CC1(C)CCC(NC(=O)c2cc3cc(F)ncc3[nH]2)CC1 [MPL-129, N-(4,4-dimethylcyclohexyl)-5-fluoro-1H-pyrrolo[2,3-c]pyridine-2-carboxamide] | 0.5 (≈ 1.73 µM) |
| Cc1nc(F)cc2cc(C(=O)N[C@H]3C[C@H]4C[C@@H]([C@@H]3C)C4(C)C)[nH]c12 [MPL-134, 5-fluoro-7-methyl-N-[(1S,2S,3S,5R)-2,6,6-trimethylnorpinan-3-yl]-1H-pyrrolo[2,3-c]pyridine-2-carboxamide] | 3.1 (≈ 9.41 µM) |
| C[C@@H]1[C@@H](NC(=O)c2cc3c(F)c(Cl)ncc3[nH]2)C[C@H]2C[C@@H]1C2(C)C [MPL-138, 5-chloro-4-fluoro-N-[(1S,2S,3S,5R)-2,6,6-trimethylnorpinan-3-yl]-1H-pyrrolo[2,3-c]pyridine-2-carboxamide] | 2.9 (≈ 8.29 µM) |
| CC1(C)CCC(NC(=O)c2cc3c(F)c(Cl)ncc3[nH]2)CC1 [MPL-139, 5-chloro-N-(4,4-dimethylcyclohexyl)-4-fluoro-1H-pyrrolo[2,3-c]pyridine-2-carboxamide] | 0.24 (≈ 0.741 µM) |
| Cc1ncc2[nH]c(C(=O)N[C@H]3C[C@H]4C[C@@H]([C@@H]3C)C4(C)C)cc2c1F [MPL-140, 4-fluoro-5-methyl-N-[(1S,2S,3S,5R)-2,6,6-trimethylnorpinan-3-yl]-1H-pyrrolo[2,3-c]pyridine-2-carboxamide] | 1.3 (≈ 3.95 µM) |
| Cc1ncc2[nH]c(C(=O)NC3CCC(C)(C)CC3)cc2c1F [MPL-141, N-(4,4-dimethylcyclohexyl)-4-fluoro-5-methyl-1H-pyrrolo[2,3-c]pyridine-2-carboxamide] | 0.29 (≈ 0.956 µM) |
